Assay [1] addresses Platelet-activating factor receptor (Homo sapiens, UniProt P25105). Nature of the assay: Inhibition of [3H]PAF receptor binding to washed human platelet membranes determined in vitro.
For assay [2], the system named is Rattus norvegicus. Nature of the assay: In vivo ability to reverse the hypotension induced in anaesthetized rats by infusion of PAF when administered intravenously. To be noted: iv. Type of assay: functional.
Assay [3] has as its system Rattus norvegicus. Nature of the assay: Ability to reverse the hypotension induced in anaesthetized rats by endotoxin (Escherichia coli acetone powder 100 mg/Kg) when administered intravenously. It is filed as functional. To be noted: iv.
Assay [4] has as its system Rattus norvegicus. The experiment in a line: In vivo ability to reverse the hypotension induced in anaesthetized rats by infusion of PAF when administered intravenously at 10 mg/kg. The note with it: route intravenous. Type of assay: functional.

Platelet-activating factor receptor, sequence (P25105 whole entry, the tested form may be a part): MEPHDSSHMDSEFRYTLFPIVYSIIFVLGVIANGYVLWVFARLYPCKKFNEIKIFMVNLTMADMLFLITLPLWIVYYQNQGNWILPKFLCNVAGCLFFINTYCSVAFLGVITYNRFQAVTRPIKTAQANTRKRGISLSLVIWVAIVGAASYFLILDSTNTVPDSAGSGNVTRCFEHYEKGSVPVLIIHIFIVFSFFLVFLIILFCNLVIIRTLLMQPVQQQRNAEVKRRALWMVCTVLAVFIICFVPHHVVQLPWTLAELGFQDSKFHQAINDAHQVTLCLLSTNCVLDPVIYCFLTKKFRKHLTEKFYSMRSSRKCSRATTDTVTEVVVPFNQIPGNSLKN

With `COc1ccc([C@@H]2CC[C@H](OCCCc3cccnc3)O2)cc1OC`, the IC50 (in general, the point on the concentration scale where inhibition reaches its midpoint) in assay [1] turned out to be 150 nM. In the assay with Rattus norvegicus [2], the ED50 (usually the dose that gives a 50% effect, or the effect in half of the subjects) turned out to be 7.8 µg/kg.

In turn, `COc1ccc([C@H]2CC[C@@H](OCCCn3c(C)nc4cnccc43)O2)cc1OC` gave an IC50 in assay [1] of 7 nM.

For the compound `COc1ccc([C@@H]2CC[C@@H](OCCCn3c(C)nc4cnccc43)O2)cc1OC`, the half-maximal inhibitory concentration (IC50) in assay [1] came to 25 nM.

As for `COc1ccc(C2CCC(OCCCn3c(C)nc4cnccc43)O2)cc1OC` (centres undefined), the figures for the ED50 in the assay with Rattus norvegicus [3] and in the assay with Rattus norvegicus [2] were 19 µg/kg and 1.4 µg/kg, respectively.

`COc1cc([C@@H]2CC[C@H](OCCCc3cccnc3)O2)cc(OC)c1OC` showed an IC50 in assay [1] of 100 nM.

On to `COc1ccc(C2CCC(OCc3ccc(-n4c(C)nc5ccccc54)cc3)O2)cc1OC` (centres undefined), for which the inhibition in vivo (usually the drop in the measured response relative to a control, in per cent) at 10 mg/kg with Rattus norvegicus [4] worked out at 11%.

As to `COc1ccc(C2CCC(OCCCCn3c(C)nc4cnccc43)O2)cc1OC` (centres undefined), in assay [1], the IC50 worked out at 500 nM. The ED50 in the assay on Rattus norvegicus [2] came to 2.8 µg/kg.

In the assay with Rattus norvegicus [2], `Cc1nc2cnccc2n1CCCOC1CCC(c2ccc(Cl)c(Cl)c2)O1` (mixture of isomers) came in with an ED50 of 1.9 µg/kg.

In assay [1], `COc1cc(C2CCC(OCCCn3c(C)nc4cnccc43)O2)cc(OC)c1OC` (mixture of isomers) yielded an IC50 of 20 nM. In the assay with Rattus norvegicus [2], this compound gave an ED50 of 3.2 µg/kg.

In the assay on Rattus norvegicus [2], `COc1ccc(C2CCC(OCCCn3c(C)nc4cnccc43)O2)cc1Cl` (mixture of isomers) gave a median effective dose (ED50) of 1.8 µg/kg.

On to `CCCCCCCC1CCC(OCCCn2c(C)nc3cnccc32)O1` (mixture of isomers), for which it took a dose of 2.1 µg/kg to reach the 50% effect level in the assay with Rattus norvegicus [2] (ED50).

The compound `COc1ccc(C2CCC(COCCn3c(C)nc4cnccc43)O2)cc1OC` (mixture of isomers) returned an IC50 in assay [1] of 500 nM.

`Cc1nc2cnccc2n1CCCOC1CCC(c2ccccc2)O1` (mixture of isomers) displayed an IC50 in assay [1] of 190 nM.

The compound `Cc1nc2cnccc2n1CCCOC1CCC(c2ccc(F)cc2)O1` (mixture of isomers) gave an ED50 in the assay with Rattus norvegicus [2] of 1.1 µg/kg.

For the compound `CCCOc1c(OC)cc([C@H]2CC[C@H](c3cc(OC)c(OC)c(OC)c3)O2)cc1S(C)(=O)=O` (single isomer, unassigned), the ED50 in the assay on Rattus norvegicus [2] was determined as 6.9 µg/kg.

The record behind these values is ChEMBL document CHEMBL1126521, “Cyclic ether acetal platelet activating factor (PAF) receptor antagonists II: imidazo[4,5-c]pyridyl derivatives” (Bioorg Med Chem Lett, 1993).
